Patent US10561749B2, “Nuclear medicine diagnostic imaging agent” (Kyoto University, priority 2015, dated 2020)
One block for each compound: values may come before it.

Tests used:
Type in all cases: biochemical
EGFR (T790M, L858R) = target: T1, EGFR (T790M, L858R) (Homo sapiens, UniProt P00533, L858R/T790M); assay: EGFR tyrosine kinase inhibiting activity, ADP-Glo (EGFR (T790M, L858R) Kinase Enzyme System, DM); settings: for EGFR Kinase inhibition: IC50 DM: ATP 10 μM, max concentration 20 μM, >10: <50% inhibition at 10 μM, no active: almost no activity at 20 μM; for IC50: read-out: EGFR Kinase inhibition: IC50 DM
T1 construct: purchased Promega V5324
Procedure: (§1) Four types of EGFR Kinase Enzyme Systems, specifically, EGFR Kinase Enzyme System (Catalog No. V3831), EGFR (L858R) Kinase Enzyme System (Catalog No. V5322), EGFR (T790M) Kinase Enzyme System (Catalog No. V4506), and EGFR (T790M, L858R) Kinase Enzyme System (Catalog No. V5324) were used (all of them were manufactured by Promega).
(§2) The measurement was carried out according to the Promega protocol applications guide. That is, a buffer solution (40 mM Tris-HCl, pH 7.5, 20 mM MgCl2, 50 μM DTT and 0.1 mg/mL BSA) was used as a dilute solution. The concentration of each compound started at 20 μM (the final concentration, including 1% DMSO) with 5-fold dilutions with the buffer solution. Thus, ten concentrations of each compound were prepared. Then, 2 μL of each concentration of each compound thus obtained was added to each well of a 384-well plate. Furthermore, 4 μL (20 ng) of an EGFR Kinase […] that came with each EGFR Kinase Enzyme System was added to each well, which then was incubated at room temperature for ten minutes. Subsequently, 4 μL of mixed solution of ATP (10 μM) and Poly(Glu, Tyr) (2 μg) substrate was added to each well, which then was incubated at room temperature for one hour. Then, 10 μL of ADP-Glo™ Reagent (ADP-Glo™ Kinase Assay, Promega) was added to each well, which then was reacted at room temperature for 40 minutes. Furthermore, 20 μL of Kinase Detection Reagent (ADP-Glo™ Kinase Assay, Promega) was added to each well, which then was reacted at room temperature for one hour. […] From the data thus obtained, dose-response curves and IC50 were calculated using GraphPad Prism 5 (GraphPad Software, Inc.). In Table 1 below, WT indicates the measurement results obtained with the EGFR Kinase Enzyme System, L858R indicates the measurement results obtained with the EGFR (L858R) Kinase Enzyme System, T790M indicates the measurement results obtained with the EGFR (T790M) Kinase Enzyme System, and DM indicates the measurement results obtained with the EGFR (T790M, L858R) Kinase Enzyme System.

EGFR (T790M) = target: T2, EGFR (T790M) (Homo sapiens, UniProt P00533, T790M); assay: EGFR tyrosine kinase inhibiting activity, ADP-Glo (EGFR (T790M) Kinase Enzyme System); settings: for EGFR Kinase inhibition: IC50 T790M: ATP 10 μM, max concentration 20 μM, >10: <50% inhibition at 10 μM, no active: almost no activity at 20 μM; for IC50: read-out: EGFR Kinase inhibition: IC50 T790M
T2 construct: purchased Promega V4506
Procedure: as §1, §2

[1] = target: T3, EGFR tyrosine kinase (WT) (Homo sapiens, UniProt P00533); assay: EGFR tyrosine kinase inhibiting activity, ADP-Glo (EGFR Kinase Enzyme System, WT); settings: read-out: EGFR Kinase inhibition: IC50 WT
T3 construct: purchased Promega V3831
Procedure: as §1, §2

EGFR (L858R) = target: T4, EGFR (L858R) (Homo sapiens, UniProt P00533, L858R); assay: EGFR tyrosine kinase inhibiting activity, ADP-Glo (EGFR (L858R) Kinase Enzyme System); settings: read-out: EGFR Kinase inhibition: IC50 L858R
T4 construct: purchased Promega V5322
Procedure: as §1, §2

T1 sequence (P00533 25-1210 T790M/L858R): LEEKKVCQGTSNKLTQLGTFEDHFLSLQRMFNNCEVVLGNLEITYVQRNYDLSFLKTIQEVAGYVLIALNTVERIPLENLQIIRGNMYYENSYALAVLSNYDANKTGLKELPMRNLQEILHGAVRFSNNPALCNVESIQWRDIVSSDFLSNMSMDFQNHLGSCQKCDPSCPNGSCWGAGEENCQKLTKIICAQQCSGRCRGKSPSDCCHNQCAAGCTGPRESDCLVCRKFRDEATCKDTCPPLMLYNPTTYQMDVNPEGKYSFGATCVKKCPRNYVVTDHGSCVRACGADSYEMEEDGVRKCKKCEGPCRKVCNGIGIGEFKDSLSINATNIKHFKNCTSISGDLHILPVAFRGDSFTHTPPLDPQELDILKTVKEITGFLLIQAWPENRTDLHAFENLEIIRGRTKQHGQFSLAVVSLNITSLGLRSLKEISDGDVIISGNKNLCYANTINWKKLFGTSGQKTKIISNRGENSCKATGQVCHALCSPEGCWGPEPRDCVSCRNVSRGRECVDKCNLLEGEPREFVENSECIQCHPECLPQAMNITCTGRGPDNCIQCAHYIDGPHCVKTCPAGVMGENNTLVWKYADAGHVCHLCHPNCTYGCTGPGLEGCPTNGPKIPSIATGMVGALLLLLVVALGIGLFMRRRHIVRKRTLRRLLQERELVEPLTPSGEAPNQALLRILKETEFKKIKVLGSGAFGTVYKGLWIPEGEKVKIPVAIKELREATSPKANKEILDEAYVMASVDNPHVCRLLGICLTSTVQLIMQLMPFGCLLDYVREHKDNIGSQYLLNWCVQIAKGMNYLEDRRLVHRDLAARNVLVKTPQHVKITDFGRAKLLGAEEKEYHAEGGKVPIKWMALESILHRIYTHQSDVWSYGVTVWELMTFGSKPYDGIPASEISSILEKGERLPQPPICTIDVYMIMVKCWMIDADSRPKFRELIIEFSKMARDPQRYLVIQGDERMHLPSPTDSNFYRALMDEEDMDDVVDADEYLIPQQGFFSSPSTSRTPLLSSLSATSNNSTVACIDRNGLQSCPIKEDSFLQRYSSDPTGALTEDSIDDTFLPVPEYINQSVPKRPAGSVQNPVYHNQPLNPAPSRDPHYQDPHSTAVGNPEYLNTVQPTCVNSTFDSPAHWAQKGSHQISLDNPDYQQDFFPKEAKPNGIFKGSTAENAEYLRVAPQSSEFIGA
T4 sequence (P00533 25-1210 L858R): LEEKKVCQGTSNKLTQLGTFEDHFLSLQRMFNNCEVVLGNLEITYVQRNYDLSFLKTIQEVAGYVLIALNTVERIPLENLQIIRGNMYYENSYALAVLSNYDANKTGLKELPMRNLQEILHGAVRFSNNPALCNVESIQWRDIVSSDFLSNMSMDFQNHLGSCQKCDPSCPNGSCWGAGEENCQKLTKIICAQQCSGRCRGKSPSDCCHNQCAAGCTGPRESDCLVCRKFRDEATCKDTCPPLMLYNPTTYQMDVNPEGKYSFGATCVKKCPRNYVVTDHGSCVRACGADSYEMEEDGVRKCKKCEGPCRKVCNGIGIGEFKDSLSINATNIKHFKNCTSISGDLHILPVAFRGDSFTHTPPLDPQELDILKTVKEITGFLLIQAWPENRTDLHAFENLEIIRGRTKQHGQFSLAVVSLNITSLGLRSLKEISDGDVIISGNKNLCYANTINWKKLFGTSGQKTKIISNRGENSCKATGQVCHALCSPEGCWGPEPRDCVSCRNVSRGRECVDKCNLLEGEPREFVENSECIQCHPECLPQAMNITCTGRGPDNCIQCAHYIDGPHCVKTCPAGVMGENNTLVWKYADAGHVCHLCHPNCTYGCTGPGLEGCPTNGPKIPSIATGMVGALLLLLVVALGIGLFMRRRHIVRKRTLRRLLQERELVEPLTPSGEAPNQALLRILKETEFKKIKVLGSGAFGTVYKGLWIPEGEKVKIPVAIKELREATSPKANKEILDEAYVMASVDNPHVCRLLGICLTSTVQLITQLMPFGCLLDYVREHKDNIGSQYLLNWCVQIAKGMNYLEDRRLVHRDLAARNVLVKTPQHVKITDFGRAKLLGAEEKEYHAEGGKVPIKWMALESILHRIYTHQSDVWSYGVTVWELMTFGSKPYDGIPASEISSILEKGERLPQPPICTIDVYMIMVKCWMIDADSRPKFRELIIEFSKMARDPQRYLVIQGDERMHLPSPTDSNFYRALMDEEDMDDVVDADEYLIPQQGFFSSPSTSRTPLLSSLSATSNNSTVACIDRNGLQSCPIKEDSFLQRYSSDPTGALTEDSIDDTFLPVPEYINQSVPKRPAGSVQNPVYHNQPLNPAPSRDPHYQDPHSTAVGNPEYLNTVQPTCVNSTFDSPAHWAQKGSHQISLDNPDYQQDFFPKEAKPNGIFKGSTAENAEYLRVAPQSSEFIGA
T3 sequence (P00533 25-1210): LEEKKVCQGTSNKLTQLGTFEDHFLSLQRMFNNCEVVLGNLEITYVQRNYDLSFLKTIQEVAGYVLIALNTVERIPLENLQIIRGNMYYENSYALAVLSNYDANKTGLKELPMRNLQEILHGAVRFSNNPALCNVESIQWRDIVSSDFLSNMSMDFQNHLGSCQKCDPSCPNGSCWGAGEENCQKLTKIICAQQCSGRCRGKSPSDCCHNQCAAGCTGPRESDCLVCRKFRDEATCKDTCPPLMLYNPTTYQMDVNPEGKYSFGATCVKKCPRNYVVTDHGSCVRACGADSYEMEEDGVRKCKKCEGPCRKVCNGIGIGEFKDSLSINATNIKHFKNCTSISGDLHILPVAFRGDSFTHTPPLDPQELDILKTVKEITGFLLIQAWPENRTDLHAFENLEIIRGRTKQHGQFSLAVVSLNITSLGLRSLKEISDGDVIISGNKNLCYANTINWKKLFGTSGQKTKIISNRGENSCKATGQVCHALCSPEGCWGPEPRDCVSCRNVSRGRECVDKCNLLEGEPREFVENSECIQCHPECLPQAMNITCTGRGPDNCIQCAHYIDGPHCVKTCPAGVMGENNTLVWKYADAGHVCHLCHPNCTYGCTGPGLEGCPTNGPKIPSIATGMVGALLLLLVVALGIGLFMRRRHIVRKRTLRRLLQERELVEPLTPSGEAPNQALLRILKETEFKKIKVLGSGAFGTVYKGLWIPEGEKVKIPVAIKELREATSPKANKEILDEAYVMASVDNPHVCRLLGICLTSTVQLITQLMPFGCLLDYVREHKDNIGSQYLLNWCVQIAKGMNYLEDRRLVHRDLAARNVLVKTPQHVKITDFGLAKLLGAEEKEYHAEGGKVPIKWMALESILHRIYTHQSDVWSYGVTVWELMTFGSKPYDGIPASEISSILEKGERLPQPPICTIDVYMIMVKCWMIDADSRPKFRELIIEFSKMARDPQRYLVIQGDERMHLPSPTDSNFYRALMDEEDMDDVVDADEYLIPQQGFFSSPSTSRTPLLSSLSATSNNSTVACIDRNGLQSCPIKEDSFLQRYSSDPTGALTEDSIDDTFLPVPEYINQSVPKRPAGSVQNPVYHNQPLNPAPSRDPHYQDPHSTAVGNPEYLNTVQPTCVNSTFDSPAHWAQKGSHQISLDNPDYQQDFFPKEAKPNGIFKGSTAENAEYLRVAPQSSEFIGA
T2 sequence (P00533 25-1210 T790M): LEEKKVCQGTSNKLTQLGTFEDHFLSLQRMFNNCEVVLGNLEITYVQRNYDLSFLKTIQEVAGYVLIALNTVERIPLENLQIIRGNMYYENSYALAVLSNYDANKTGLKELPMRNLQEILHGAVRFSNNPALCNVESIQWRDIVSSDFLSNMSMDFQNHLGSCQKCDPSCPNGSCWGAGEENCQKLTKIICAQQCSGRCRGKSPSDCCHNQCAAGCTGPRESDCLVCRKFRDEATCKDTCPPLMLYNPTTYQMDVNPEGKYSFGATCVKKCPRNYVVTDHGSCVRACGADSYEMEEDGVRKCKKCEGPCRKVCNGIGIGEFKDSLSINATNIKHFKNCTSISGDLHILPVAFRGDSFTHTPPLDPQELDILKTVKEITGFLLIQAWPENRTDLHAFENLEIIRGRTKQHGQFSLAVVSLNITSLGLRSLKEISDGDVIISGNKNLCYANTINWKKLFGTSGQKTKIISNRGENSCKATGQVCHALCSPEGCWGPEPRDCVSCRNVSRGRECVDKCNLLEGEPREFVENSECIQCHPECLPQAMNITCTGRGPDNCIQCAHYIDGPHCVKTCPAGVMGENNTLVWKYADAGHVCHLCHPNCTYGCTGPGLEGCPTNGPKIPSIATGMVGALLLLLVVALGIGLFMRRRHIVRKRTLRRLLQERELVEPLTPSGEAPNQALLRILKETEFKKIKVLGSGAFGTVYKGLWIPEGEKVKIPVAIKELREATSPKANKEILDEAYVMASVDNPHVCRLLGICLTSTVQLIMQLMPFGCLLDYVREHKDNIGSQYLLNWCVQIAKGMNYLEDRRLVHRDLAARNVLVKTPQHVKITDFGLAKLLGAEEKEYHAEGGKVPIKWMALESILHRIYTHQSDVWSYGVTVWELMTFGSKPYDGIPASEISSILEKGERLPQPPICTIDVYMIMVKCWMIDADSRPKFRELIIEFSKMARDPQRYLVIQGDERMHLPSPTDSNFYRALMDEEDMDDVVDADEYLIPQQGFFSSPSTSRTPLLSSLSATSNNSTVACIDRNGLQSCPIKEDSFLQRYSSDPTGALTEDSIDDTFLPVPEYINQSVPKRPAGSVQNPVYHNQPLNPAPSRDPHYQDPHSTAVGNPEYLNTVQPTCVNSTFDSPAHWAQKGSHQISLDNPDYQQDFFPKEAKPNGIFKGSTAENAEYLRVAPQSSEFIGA

Compound: O=C(CCN1CCN(CCF)CC1)N1CCc2c(sc3ncnc(N[C@H](CO)c4ccccc4)c23)C1 [P4, (S)-3-(4-(2-Fluoroethyl)piperazin-1-yl)-1-(4-((2-hydroxy-1phenylethyl)amino)-5,8-dihydropyrido[4′,3′:4,5]thieno[2,3-d]pyrimidin-7(6H)-yl)propan-1-one]
EGFR Kinase inhibition: IC50 DM (EGFR (T790M, L858R)): no active
EGFR Kinase inhibition: IC50 T790M (EGFR (T790M)): no active
IC50 [1]: 2830 nM
IC50 (EGFR (L858R)): 1830 nM

Compound: O=C(CN1CCN(CCF)CC1)N1CCc2c(sc3ncnc(N[C@H](CO)c4ccccc4)c23)C1 [P3, (S)-2-(4-(2-Fluoroethyl)piperazin-1-yl)-1-(4-((2-hydroxy-1phenylethyl)amino)-5,8-dihydropyrido[4′,3′:4,5]thieno[2,3-d]pyrimidin-7(6H)-yl)ethan-1-one]
EGFR Kinase inhibition: IC50 DM (EGFR (T790M, L858R)): no active
EGFR Kinase inhibition: IC50 T790M (EGFR (T790M)): no active
IC50 [1]: 4370 nM
IC50 (EGFR (L858R)): 2670 nM

Compound: COC[C@@H](Nc1ncnc2sc3c(c12)CCN(C(=O)/C=C/CN1CCN(CCF)CC1)C3)c1ccccc1 [P7]
EGFR Kinase inhibition: IC50 DM (EGFR (T790M, L858R)): no active
EGFR Kinase inhibition: IC50 T790M (EGFR (T790M)): no active
IC50 [1]: 374 nM
IC50 (EGFR (L858R)): 51 nM

Compound: O=C(/C=C/CN1CCN(CCOCCOCCOCCF)CC1)N1CCc2c(sc3ncnc(N[C@H](CO)c4ccccc4)c23)C1 [P10]
IC50 (EGFR (T790M, L858R)): > 10000 nM
IC50 (EGFR (T790M)): > 10000 nM
IC50 [1]: 90 nM
IC50 (EGFR (L858R)): 52 nM

The next lines start with the values.

IC50 (EGFR (T790M, L858R)): > 10000 nM
IC50 (EGFR (T790M)): > 10000 nM
IC50 [1]: 67 nM
IC50 (EGFR (L858R)): 31 nM
Compound: O=C(/C=C/CN1CCN(CCOCCF)CC1)N1CCc2c(sc3ncnc(N[C@H](CO)c4ccccc4)c23)C1 [P9]

EGFR Kinase inhibition: IC50 DM (EGFR (T790M, L858R)): no active
EGFR Kinase inhibition: IC50 T790M (EGFR (T790M)): no active
IC50 [1]: 4310 nM
IC50 (EGFR (L858R)): 1380 nM
Compound: O=C(/C=C/CN1CCN(CCF)CC1)N1CCc2c(sc3ncnc(Nc4cccc(Br)c4)c23)C1 [P8]

IC50 (EGFR (T790M, L858R)): > 10000 nM
IC50 (EGFR (T790M)): > 10000 nM
IC50 [1]: 130 nM
IC50 (EGFR (L858R)): 27 nM
Compound: C[C@@H](Nc1ncnc2sc3c(c12)CCN(C(=O)/C=C/CN1CCN(CCF)CC1)C3)c1ccccc1 [P5, (R,E)-4-(4-(2-Fluoroethyl)piperazin-1-yl)-1-(4-((1-phenylethyl)amino)-5,8-dihydropyrido[4′,3′:4,5]thieno[2,3-d]pyrimidin-7(6H)-yl)but-2-en-1-one]

IC50 (EGFR (T790M, L858R)): > 10000 nM
EGFR Kinase inhibition: IC50 T790M (EGFR (T790M)): no active
IC50 [1]: 896 nM
IC50 (EGFR (L858R)): 336 nM
Compound: O=C(/C=C/CN1CCN(CCF)CC1)N1CCc2c(sc3ncnc(O[C@@H](c4ccccc4)C(F)(F)F)c23)C1 [P6, (S,E)-4-(4-(2-Fluoroethyl)piperazin-1-yl)-1-(4-(2,2,2-trifluoro-1-phenylethoxy)-5,8-dihydropyrido[4′,3′:4,5]thieno[2,3-d]pyrimidin-7 (6H)-yl)but-2-en-1-one]

IC50 (EGFR (T790M, L858R)): > 10000 nM
IC50 (EGFR (T790M)): 8970 nM
IC50 [1]: 44 nM
IC50 (EGFR (L858R)): 9 nM
Compound: O=C(/C=C/CN1CCN(CCF)CC1)N1CCc2c(sc3ncnc(N[C@H](CO)c4ccccc4)c23)C1 [P2, (S,E)-4-(4-(2-Fluoroethyl)piperazin-1-yl)-1-(4-((2-hydroxy-1phenylethyl)amino)-5,8-dihydropyrido[4′,3′:4,5]thieno[2,3-d]pyrimidin-7(6H)-yl)but-2-en-1-one]

EGFR Kinase inhibition: IC50 DM (EGFR (T790M, L858R)): no active
EGFR Kinase inhibition: IC50 T790M (EGFR (T790M)): no active
IC50 [1]: 2310 nM
IC50 (EGFR (L858R)): 3410 nM
Compound: OC[C@@H](Nc1ncnc2sc3c(c12)CCN(CCF)C3)c1ccccc1 [P1]
